Experiment [1] deals with MDA-MB-231. Description: drug sensitivity score (DSS), CellTox Green (DSS (AUC-based score)); higher = stronger drug effect (viability inhibition or cytotoxicity); extreme values may be limits of the assay. The settings on record: incubation time: 72 h. In outline:
(§1)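 Using 20 µl of cell suspension per well, breast cancer cell lines were seeded into 384-well plates pre-loaded with compound at 5 concentrations in 10-fold steps across a compound-specific 10,000-fold range. Incubation lasted 72 h, after which CellTox Green fluorescence at 485/520 nm and then CellTiter-Glo luminescence, following 10 min at room temperature, were recorded. Each plate was normalised to 0.1 % DMSO and a positive kill control before the drug sensitivity score was derived from the area under the fitted dose-response curve.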

For experiment [2], the system named is MFM-223. Described as above. The settings on record: incubation time: 72 h. In outline: as §1
Experiment [3] relates to CAL-85-1. The description is as above. The settings on record: incubation time: 72 h. In outline: as §1
Experiment [4] relates to CAL-51. The description is as above. Conditions: incubation time: 72 h. The method, boiled down: as §1
Experiment [5] deals with CAL-120. Described as above. Conditions: incubation time: 72 h. In outline: as §1
The test system of experiment [6] is MDA-MB-453. Described as above. Conditions: incubation time: 72 h. The method, boiled down: as §1
Experiment [7] relates to HDQ-P1. The description is as above. Conditions: incubation time: 72 h. In outline: as §1
Experiment [8] relates to CAL-148. The experiment is described as above. Conditions: incubation time: 72 h. In outline:
as §1

Experiment [9] concerns MCF-10A. The description is as above. The settings on record: incubation time: 72 h. The method, boiled down:
as §1

Experiment [10] concerns HCC1143. Described as above. The settings on record: incubation time: 72 h. The method, boiled down: as §1
Experiment [11] concerns MDA-MB-468. The experiment is described as above. Conditions: incubation time: 72 h. In outline: as §1
Experiment [12] relates to Hs578T. The experiment is described as above. The settings on record: incubation time: 72 h. The method, boiled down:
as §1

In experiment [13] the test system is HCC1937. Description: normalised viability (% of control), CellTiter-Blue; higher = more viable cells (100 = DMSO, 0 = benzethonium chloride kill control). Conditions: 1 nM; incubation time: 72 h. Here is the method: (§2)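 DSRT, CellTiter-Blue viability, 72 h incubation. Signal is normalised to DMSO and benzethonium chloride controls. Value is the normalised response at dose 1.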
In general terms: The colour change of resazurin is a common sign of viable cells or microbes.

Experiment [14] has as its system MDA-MB-231. The description is as above. Conditions: 1 nM; incubation time: 72 h. Here is the method: as §2
The test system of experiment [15] is MDA-MB-436. The experiment is described as above. Conditions: 1 nM; incubation time: 72 h. The procedure: as §2
Experiment [16] has as its system DU-4475. The description is as above. The settings on record: 1 nM; incubation time: 72 h. The procedure:
as §2

Experiment [17] relates to CAL-85-1. The description is as above. The settings on record: 1 nM; incubation time: 72 h. Here is the method:
as §2

Experiment [18] relates to CAL-120. The description is as above. Conditions: 1 nM; incubation time: 72 h. Here is the method:
as §2

Experiment [19] relates to BT-549. Described as above. Conditions: 1 nM; incubation time: 72 h. Here is the method: as §2
For experiment [20], the system named is MDA-MB-453. Described as above. Conditions: 1 nM; incubation time: 72 h. The procedure:
as §2

Experiment [21] has as its system BT-474. The experiment is described as above. Conditions: 1 nM; incubation time: 72 h. The procedure: as §2
Experiment [22] relates to HDQ-P1. Described as above. The settings on record: 1 nM; incubation time: 72 h. The procedure: as §2
Experiment [23] concerns HCC1599. Described as above. Conditions: 1 nM; incubation time: 72 h. The procedure: as §2
Experiment [24] deals with HCC1143. Described as above. Conditions: 1 nM; incubation time: 72 h. Here is the method: as §2
Experiment [25] relates to MDA-MB-468. Described as above. Conditions: 1 nM; incubation time: 72 h. The procedure:
as §2

In experiment [26] the test system is Hs578T. The experiment is described as above. The settings on record: 1 nM; incubation time: 72 h. The procedure: as §2
The test system of experiment [27] is SK-BR-3. The experiment is described as above. The settings on record: 1 nM; incubation time: 72 h. The procedure: as §2

In the supplement of paper PMC4862054 one finds drug sensitivity score and normalised viability data, which are given here for four compounds.

SMILES strings stand for the structures.

In the case of `COc1ccccc1S(=O)(=O)Nc1ccc2c(c1)CN(C)C(=O)N2` [PFI-1], the drug sensitivity score in [1] is 0; in [2], 0; in experiment [3], 0.65; in experiment [4] it was 0; in experiment [5], 0; in experiment [6] it was 0. Further, the drug sensitivity score in [7], in experiment [8], in [9], in experiment [10], in [11] and in [12] was 0 in each case.
For the compound `NS(=O)(=O)OC[C@@H]1C[C@@H](n2ccc3c(N[C@H]4CCc5ccccc54)ncnc32)C[C@@H]1O` [Pevonedistat], the drug sensitivity score was 0 in experiment [1]; 0 in experiment [2]; 0 in [3]; 25.3 in experiment [4]; 0 in [5]; 0 in experiment [6]. Further, the drug sensitivity score amounted to 0 in experiment [7]; 0 in [8]; 0 in [9]; 0 in experiment [10]; 7.99 in experiment [11]; 0.549 in [12].
Turning to `CNNCc1ccc(C(=O)NC(C)C)cc1` [Procarbazine], the normalised viability in experiment [13] was found to be 78.9%; in experiment [14] it was 112%; in experiment [15], 99.3%; in experiment [16], 110%; in [17], 92.4%; in experiment [18] it was 97%. The normalised viability amounted to 113% in [19]; 110% in experiment [20]; 92.5% in [21]; 120% in [22]; 84.6% in [23]; 103% in experiment [24]. The normalised viability in [25] is 104%; in experiment [26], 107%; in experiment [27], 106%. In addition, the drug sensitivity score in experiment [1] is 0; in experiment [2] it was 0; in [3] it was 1.2; in experiment [4], 0; in experiment [5], 0; in experiment [7], 0. Besides, the drug sensitivity score was determined as 0 in [8]; 0 in experiment [9]; 0 in experiment [10]; 3.72 in experiment [11]; 0 in experiment [12].
`CN(C)C[C@@H]1CCn2cc(c3ccccc32)C2=C(C(=O)NC2=O)c2cn(c3ccccc23)CCO1` [Ruboxistaurin]: the normalised viability in [13] was 106%; in experiment [14] it was 92.5%; in [15], 101%; in experiment [16], 97%; in [17], 106%; in experiment [18] it was 120%. The normalised viability was determined as 91.4% in experiment [19]; 98.5% in experiment [20]; 118% in [21]; 70.7% in [22]; 120% in experiment [23]; 127% in experiment [24]. Besides, the normalised viability worked out at 96.8% in [25], 94.8% in experiment [26] and 99.3% in [27]. The drug sensitivity score in [1] was determined as 7.98; in [2], 0; in experiment [3] it was 7.2; in experiment [4] it was 9.21; in experiment [5] it was 0.954; in [6] it was 4.68. The drug sensitivity score in [7] turned out to be 2.84; in experiment [8], 10.6; in experiment [9], 0; in [10], 0; in experiment [11], 6.81.
